Legend:
Sirt3 [1] = target: T1, Sirt3 (Homo sapiens, UniProt Q9NTG7); experiment: Fluorescence-based (FdL) assay of Sirt3 deacylation activity under steady state conditions; format: biochemical; settings: for remaining activity at 1 µM: compound 1 μM; for remaining activity at 1 µM / remaining activity at 10 µM: read-out: % Control, Sirt3 deacylation activity; for remaining activity at 10 µM: compound 10 μM; for % Control, Sirt3 deacylation activity: compound 50 μM or maximum
T1 construct: The hSirt3^118-399 was purchased from Xtal Biostructures (Natick, MA); purchased Xtal Biostructures (Natick, MA)
T1 sequence (Q9NTG7 118-399): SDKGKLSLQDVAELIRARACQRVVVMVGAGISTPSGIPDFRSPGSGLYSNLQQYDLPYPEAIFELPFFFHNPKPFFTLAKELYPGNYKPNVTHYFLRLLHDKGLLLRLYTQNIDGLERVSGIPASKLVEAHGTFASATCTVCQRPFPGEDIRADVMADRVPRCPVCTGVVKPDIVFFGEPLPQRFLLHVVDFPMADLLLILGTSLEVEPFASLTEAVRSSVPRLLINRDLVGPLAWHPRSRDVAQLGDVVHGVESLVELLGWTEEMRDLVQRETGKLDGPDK
Text: (§1) FdL2 (QPKK^AC-AMC) peptide, also called p53-AMC peptide, was purchased from Enzo Life Sciences (Farmingdale, NY). Carba-NAD was synthesized by Dalton Pharma (Toronto, ON). The hSirt3^118-399 was purchased from Xtal Biostructures (Natick, MA). Virtual screening hits were supplied from ChemBridge Corp. (San Diego, CA).
(§2) Effect of Hit Compounds on hSirt3^118-399 Deacetylation Activity

Sirt3 [2] = target: T1, Sirt3; experiment: HPLC assay of Sirt3 deacylation activity under non-steady state conditions; format: biochemical; settings: compound 10 μM, 2 minute time point, read-out: % Control (10 μM), Sirt3 deacylation activity
Text: as §1, §2

SMILES: C=C(CC)C(=O)c1ccc(OCC(=O)N[C@H](Cc2ccc(Cl)cc2)C(=O)NCCCC)c(Cl)c1Cl [FIG. 1, (2R)—N-butyl-3-(4-chlorophenyl)-2-[[2-[2,3-dichloro-4-(2-methylenebutanoyl)phenoxy]acetyl]amino]propanamide]
- remaining activity at 1 µM (Sirt3 [1]): 95.7 ± 2.6%
- remaining activity at 10 µM (Sirt3 [1]): 82.8 ± 2.3%
- % Control, Sirt3 deacylation activity (Sirt3 [1]): 73.6 ± 2.4%
- remaining activity at 10 µM (Sirt3 [2]; [E]0/[NAD+]0 = 0.3, 50 μM NAD+): 104 ± 3.3%
- remaining activity at 10 µM (Sirt3 [2]; [E]0/[NAD+]0 = 0.6, 50 μM NAD+): 107 ± 1.6%

SMILES: C=C(CC)C(=O)c1ccc(OCC(=O)NC2c3ccccc3CCc3cc(OCC(=O)NCCCC)ccc32)c(Cl)c1Cl (centres unmarked) [FIG. 28]
- remaining activity at 1 µM (Sirt3 [1]): 80.4 ± 3.1%
- remaining activity at 10 µM (Sirt3 [1]): 75.5 ± 2.3%
- % Control, Sirt3 deacylation activity (Sirt3 [1]): 68.7 ± 4.0%
